Here are results for ten compounds from ChEMBL document CHEMBL1201862, “PubChem BioAssay data set” (2004).

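Each compound was tested at five concentrations against cells in 96-well plates for 48 hours. GI50 marks 50% less growth.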 Active and inactive are the calls of the source. Rule as the data show it: active = GI50 up to about 1.1 µM and inactive = higher.

Test systems include A498; A549; ACHN; HCT-116; HOP-92; K562; M14; Malme-3M; NCI-H23; NCI-H460; NCI-H522; OVCAR-4; PC-3; SF-295; SK-MEL-2; SK-MEL-5; SNB-75; SR; SW-620; T47D.
Test in all cases: DTP human tumour cell line panel, 48 h

Take `COC(=O)c1c[nH]c2c1-c1cc(C(=O)OCc3ccccc3)n(S(=O)(=O)c3ccc(C)cc3)c1C(=O)C2=O`: the GI50 is 1.85 µM (inactive) in the test on A498; 0.716 µM (active) with A549; 0.28 µM (active) in the test with ACHN; 0.228 µM (active) with HCT-116; 0.27 µM (active) in the test with HOP-92; 4.99 µM (inactive) with K562. Also, the concentration for 50% growth inhibition (GI50) in the test with M14 was 0.155 µM (active); in the test on Malme-3M, 0.103 µM (active); in the test on NCI-H23 it was 0.149 µM (active); with NCI-H460, 1.24 µM (inactive); with NCI-H522, 0.207 µM (active); in the test on OVCAR-4, 0.299 µM (active). Also, the 50% growth inhibitory concentration (GI50) in the test on PC-3 was 0.283 µM (active); in the test on SF-295, 0.17 µM (active); in the test with SK-MEL-2, 0.195 µM (active); in the test with SK-MEL-5 it was 0.132 µM (active); in the test with SNB-75, 0.189 µM (active); in the test with SR, 0.262 µM (active). Moreover, the 50% growth inhibitory concentration (GI50) in the test on SW-620 is 0.214 µM (active); in the test with T47D it was 0.871 µM (active).
`O=C(NCCNCCNC(=O)c1cc(-c2ccccc2)nc2ccccc12)c1cc(-c2ccccc2)nc2ccccc12`: the GI50 with A498 is 2.7 µM (inactive); in the test on A549 it was 3.37 µM (inactive); in the test on ACHN, 2.14 µM (inactive); with HCT-116 it was 1.7 µM (inactive); in the test with HOP-92 it was 1.82 µM (inactive); in the test on K562 it was 2.16 µM (inactive). The GI50 is 1.6 µM (inactive) in the test with M14; 1.92 µM (inactive) with Malme-3M; 3.18 µM (inactive) in the test with NCI-H23; 1.5 µM (inactive) in the test with NCI-H460; 1.93 µM (inactive) in the test on NCI-H522; 2 µM (inactive) in the test with OVCAR-4. The GI50 with PC-3 is 2.75 µM (inactive); with SF-295, 1.67 µM (inactive); in the test with SK-MEL-2, 1.82 µM (inactive); in the test on SK-MEL-5 it was 1.77 µM (inactive); with SNB-75, 1.92 µM (inactive); with SR, 2.57 µM (inactive). In addition, the GI50 was 1.75 µM (inactive) in the test on SW-620 and 2.72 µM (inactive) in the test with T47D.
With `CC1CC[C@@]2(OC1)OC1C[C@H]3[C@@H]4CC[C@H]5CC(OC6OC(CO)C(OC7OC(CO)C(O)C(O)C7OC7OC(CO)C(O)C(O)C7O)C(O)C6O)CCC5(C)[C@H]4CCC3(C)C1[C@@H]2C` (some centres not stated), the GI50 in the test on A498 is 1.52 µM (inactive); with A549 it was 2.1 µM (inactive); with ACHN it was 1.54 µM (inactive); in the test with HCT-116, 1.94 µM (inactive); in the test with HOP-92, 5.2 µM (inactive); in the test on K562 it was 2.21 µM (inactive). Besides, the GI50 with M14 was 3.34 µM (inactive); with Malme-3M, 4.04 µM (inactive); with NCI-H23 it was 3.89 µM (inactive); in the test on NCI-H460 it was 3.08 µM (inactive); in the test with NCI-H522, 1.63 µM (inactive); with OVCAR-4 it was 1.14 µM (inactive). In addition, the GI50 in the test with PC-3 was 0.838 µM (active); in the test with SF-295, 4.26 µM (inactive); with SK-MEL-2 it was 2.38 µM (inactive); in the test with SK-MEL-5, 6.89 µM (inactive); in the test on SNB-75, 2.59 µM (inactive); with SR, 1.81 µM (inactive). The figures for the GI50 in the test on SW-620 and in the test with T47D were 0.933 µM (active) and 2.16 µM (inactive), respectively.
As for `COc1nc2ncc([C@@H](O)[C@H](O)CO)nc2c(=O)[nH]1`, the GI50 in the test on A498, in the test on A549, in the test on ACHN, with HCT-116, in the test on HOP-92 and in the test with K562 was > 100 µM (inactive) in each case. Further, the GI50 in the test with M14, in the test on Malme-3M, with NCI-H460, in the test on NCI-H522, with OVCAR-4 and in the test on PC-3 was > 100 µM (inactive) each time. Also, the GI50 with SF-295, with SK-MEL-2, with SK-MEL-5, in the test on SNB-75, with SR and with SW-620 was > 100 µM (inactive) throughout. In addition, the GI50 in the test on T47D was > 100 µM (inactive).
As to `O=Cc1ccc(-c2ccc(-c3ccc(CO)s3)o2)s1`, the GI50 in the test with A498 is 0.104 µM (active); with A549, 14.8 µM (inactive); with ACHN, 28.7 µM (inactive); in the test on HCT-116 it was 0.841 µM (active); in the test with HOP-92 it was 17.5 µM (inactive); in the test on K562, 1.43 µM (inactive). Also, the GI50 was 20.4 µM (inactive) in the test with M14; 18.2 µM (inactive) with Malme-3M; 21.9 µM (inactive) in the test with NCI-H23; 0.101 µM (active) in the test on NCI-H460; 15.7 µM (inactive) in the test with NCI-H522; 0.318 µM (active) in the test on OVCAR-4. Besides, the GI50 with PC-3 is 28.3 µM (inactive); in the test on SF-295, 14.5 µM (inactive); with SK-MEL-2, 35.7 µM (inactive); in the test with SK-MEL-5, 5.48 µM (inactive); in the test with SNB-75 it was 20.2 µM (inactive); with SR, 0.239 µM (active). The GI50 in the test on SW-620 is 2.22 µM (inactive); with T47D, 2.21 µM (inactive).
Turning to `COC(=O)c1ccccc1/C=C1\Cc2c(C)cc(C)cc2C1=O`, the GI50 in the test with A498, in the test on A549, in the test with ACHN, with HCT-116, with HOP-92 and in the test with K562 was > 100 µM (inactive) in each case. In addition, the GI50 in the test on M14, with Malme-3M, with NCI-H460, in the test on NCI-H522, in the test with OVCAR-4 and in the test on PC-3 was > 100 µM (inactive) each time. In addition, the GI50 with SF-295, in the test with SK-MEL-2, in the test on SK-MEL-5, with SNB-75, with SR and in the test with SW-620 was > 100 µM (inactive) each time. Moreover, in the test with T47D, the GI50 was > 100 µM (inactive).
For the compound `CN(C)NC1=NS(=O)(=O)c2cc3c(cc2S1)N(N(C)C)C(=O)c1cc2c(cc1N(N(C)C)C3=O)SC(NN(C)C)=NS2(=O)=O`, the GI50 in the test with A498, in the test with A549, in the test with ACHN, in the test with HCT-116, with HOP-92 and with K562 was > 10 µM (inactive) each time. In addition, the GI50 with M14, in the test with Malme-3M, with NCI-H23, in the test with NCI-H460, with NCI-H522 and with OVCAR-4 was > 10 µM (inactive) in each case. The GI50 with PC-3, with SF-295, with SK-MEL-2, in the test with SK-MEL-5, in the test with SNB-75 and in the test with SR was > 10 µM (inactive) each time. Moreover, the GI50 in the test on SW-620 and in the test on T47D was > 10 µM (inactive) throughout.
For the compound `CCCCN1C(=O)C2Cc3c([nH]c4ccccc34)C(c3cccc(O)c3)N2C1=O` (configuration not stated), the GI50 in the test with A498 is 18.5 µM (inactive); in the test on A549 it was 18.4 µM (inactive); with ACHN, 19.8 µM (inactive); in the test with HCT-116, 18.7 µM (inactive); in the test with HOP-92, 19.2 µM (inactive); with K562, 20.2 µM (inactive). Further, the GI50 was 18.3 µM (inactive) with M14; 20.3 µM (inactive) with NCI-H23; 20 µM (inactive) in the test on NCI-H460; 20 µM (inactive) with NCI-H522; 18.7 µM (inactive) in the test with OVCAR-4; 18.5 µM (inactive) with PC-3. The GI50 in the test on SF-295 is 17.4 µM (inactive); in the test on SK-MEL-2 it was 18 µM (inactive); in the test with SK-MEL-5, 17 µM (inactive); in the test on SNB-75, 18.5 µM (inactive); in the test on SR it was 20.5 µM (inactive); with SW-620 it was 19.9 µM (inactive). The GI50 in the test on T47D was 24.4 µM (inactive).
For the compound `C#CCSC(C=C=C)P(=O)(OC(C)C)OC(C)C` (configuration not stated), the GI50 is 36.8 µM (inactive) with A498; > 100 µM (inactive) in the test on A549; 42.8 µM (inactive) in the test with ACHN; 27 µM (inactive) in the test on HCT-116; > 100 µM (inactive) in the test on HOP-92; 23.7 µM (inactive) with K562. Besides, the GI50 in the test on M14 was > 100 µM (inactive); in the test on Malme-3M, 31.4 µM (inactive); with NCI-H23, > 100 µM (inactive); with NCI-H460, > 100 µM (inactive); in the test with NCI-H522, 23.3 µM (inactive); with OVCAR-4, > 100 µM (inactive). The GI50 in the test on PC-3 is > 100 µM (inactive); with SF-295, > 100 µM (inactive); in the test on SK-MEL-2 it was > 100 µM (inactive); with SK-MEL-5, > 100 µM (inactive); with SNB-75, > 100 µM (inactive); in the test on SR, 39.5 µM (inactive). The values for the GI50 in the test on SW-620 and in the test on T47D were 37.4 µM (inactive) and > 100 µM (inactive), respectively.
For the compound `Cc1cc(O)nc2c3c(ccc12)OC(C)(C)C=C3`, the GI50 in the test on A498 was 10.2 µM (inactive); in the test with A549, 7.33 µM (inactive); in the test with ACHN it was > 31.6 µM (inactive); in the test on HCT-116, 4.45 µM (inactive); in the test on HOP-92, > 100 µM (inactive); in the test on K562, 4.22 µM (inactive). Also, the GI50 was 5.53 µM (inactive) in the test on M14; 13.2 µM (inactive) in the test on Malme-3M; 5.46 µM (inactive) in the test with NCI-H23; 3.95 µM (inactive) with NCI-H460; 6.67 µM (inactive) in the test with NCI-H522; 18.6 µM (inactive) in the test with OVCAR-4. Further, the GI50 is 5.9 µM (inactive) with PC-3; 10.3 µM (inactive) in the test with SF-295; 10.2 µM (inactive) in the test with SK-MEL-2; 3.82 µM (inactive) in the test on SK-MEL-5; 5 µM (inactive) in the test on SNB-75; 2.44 µM (inactive) in the test with SR. Also, the GI50 in the test on SW-620 is 3.61 µM (inactive); with T47D, > 23.3 µM (inactive).

In general, GI50 refers to the concentration at which growth is held to half of that of the control.
